The NIST ThermoML archive (doi:10.1021/je0340250)
± gives the expanded uncertainty stated by the source.

Experiments:
[1] = xn = mol fraction of the nth substance listed

CN1CCOCC1 [N-methylmorpholine]
Details	surface tension liquid-gas [mN/m]
298.15 K	28.22 ± 0.69
308.15 K	27.2 ± 0.67
318.15 K	26.18 ± 0.64
328.15 K	25.15 ± 0.62

CN1CCOCC1 [N-methylmorpholine] + O
surface tension liquid-gas [mN/m], [1]
Details	298.15 K	308.15 K	318.15 K	328.15 K
x1 = 0.0082	69.64 ± 1.6	67.64 ± 1.6	65.75 ± 1.5	63.98 ± 1.5
x1 = 0.0256	54.94 ± 1.3	53.18 ± 1.2	51.42 ± 1.2	49.66 ± 1.2
x1 = 0.0481	50.58 ± 1.2	48.64 ± 1.1	46.7 ± 1.1	44.76 ± 1.1
x1 = 0.0539	49.42 ± 1.2	47.71 ± 1.1	46 ± 1.1	44.3 ± 1
x1 = 0.0747	46.86 ± 1.1	45.35 ± 1.1	43.83 ± 1	42.32 ± 1
x1 = 0.0992	44.62 ± 1.1	43.24 ± 1	41.87 ± 0.99	40.49 ± 0.95
x1 = 0.1962	38.66 ± 0.92	37.36 ± 0.88	36.05 ± 0.85	34.75 ± 0.82
x1 = 0.2972	34.9 ± 0.83	33.66 ± 0.8	32.43 ± 0.77	31.19 ± 0.74
x1 = 0.395	32.72 ± 0.78	31.54 ± 0.75	30.35 ± 0.73	29.16 ± 0.7
x1 = 0.4993	31.33 ± 0.75	30.17 ± 0.73	29.02 ± 0.7	27.86 ± 0.67
x1 = 0.5952	30.56 ± 0.74	29.47 ± 0.71	28.37 ± 0.69	27.28 ± 0.66
x1 = 0.6979	29.81 ± 0.72	28.73 ± 0.7	27.65 ± 0.67	26.57 ± 0.65
x1 = 0.8028	29.24 ± 0.71	28.14 ± 0.68	27.03 ± 0.66	25.93 ± 0.63
x1 = 0.8925	28.81 ± 0.7	27.69 ± 0.68	26.57 ± 0.65	25.45 ± 0.63
x1 = 1	28.22 ± 0.69	27.2 ± 0.67	26.18 ± 0.64	25.15 ± 0.62

C1COCCN1 [tetrahydro-1,4-oxazine]
Details	surface tension liquid-gas [mN/m]
298.15 K	37.68 ± 0.91
308.15 K	36.46 ± 0.88
318.15 K	35.24 ± 0.85
328.15 K	34.02 ± 0.83

C1COCCN1 [tetrahydro-1,4-oxazine] + O
surface tension liquid-gas [mN/m], [1]
Details	298.15 K	308.15 K	318.15 K	328.15 K
x1 = 0.0125	68.36 ± 1.6	66.65 ± 1.6	64.55 ± 1.5	62.68 ± 1.5
x1 = 0.0155	67.66 ± 1.6	65.85 ± 1.5	66.74 ± 6	61.8 ± 1.4
x1 = 0.0251	65.41 ± 1.5	63.27 ± 1.5	61.14 ± 1.4	59 ± 1.4
x1 = 0.0496	62.08 ± 1.4	60.05 ± 1.4	58.03 ± 1.4	56 ± 1.3
x1 = 0.06	60.89 ± 1.4	58.94 ± 1.4	56.98 ± 1.3	55.03 ± 1.3
x1 = 0.0735	59.6 ± 1.4	57.66 ± 1.3	55.72 ± 1.3	53.78 ± 1.3
x1 = 0.0793	59.43 ± 1.4	57.69 ± 1.3	55.63 ± 1.3	53.65 ± 1.3
x1 = 0.0854	58.94 ± 1.4	56.56 ± 1.3	54.18 ± 1.3	51.8 ± 1.2
x1 = 0.0991	57.71 ± 1.4	55.42 ± 1.3	53.12 ± 1.2	50.83 ± 1.2
x1 = 0.2005	51.23 ± 1.2	49.14 ± 1.1	47.05 ± 1.1	44.96 ± 1.1
x1 = 0.2973	47.24 ± 1.1	45.52 ± 1.1	43.8 ± 1	42.09 ± 0.99
x1 = 0.3969	44.64 ± 1.1	43.2 ± 1	41.75 ± 0.99	40.31 ± 0.95
x1 = 0.4996	43.06 ± 1	41.7 ± 0.99	40.33 ± 0.96	38.97 ± 0.93
x1 = 0.5977	41.55 ± 0.99	40.25 ± 0.96	38.96 ± 0.93	37.66 ± 0.9
x1 = 0.7005	40.33 ± 0.96	39.12 ± 0.93	37.91 ± 0.91	36.7 ± 0.88
x1 = 0.8034	39.3 ± 0.94	38.1 ± 0.91	36.9 ± 0.89	35.69 ± 0.86
x1 = 0.9096	38.38 ± 0.92	37.16 ± 0.89	35.95 ± 0.87	34.73 ± 0.84
x1 = 1	37.68 ± 0.91	36.46 ± 0.88	35.24 ± 0.85	34.02 ± 0.83

O [water] + C1COCCN1
[1], x2 = 0
Details	surface tension liquid-gas [mN/m]
298.15 K	72.01 ± 1.7
308.15 K	70.41 ± 1.6
318.15 K	68.79 ± 1.6
328.15 K	67.17 ± 1.6

O [water] + CN1CCOCC1
[1], x2 = 0
Details	surface tension liquid-gas [mN/m]
298.15 K	72.01 ± 1.7
308.15 K	70.41 ± 1.6
318.15 K	68.79 ± 1.6
328.15 K	67.17 ± 1.6
